“And” between values parts separate entries of the source, which are not always exact repeats. Equal values may be shown once. Read-outs that look alike come from different tables or passages of the source.
Experiments:
[1] = tested on: anti collagen antibodies induced arthritis (ACAIA); experiment: ACAIA mice: hot plate withdrawal latency; assay type: in vivo, Balb/c mice
Protocol: On days 0, 5 and 11 animals are placed on hot plate apparatus (53±1° C.) and the time until the first response is observed and recorded.

[2] = tested on: CXCL10, IL17α, IL22, IL36γ, CCL20, SerpinB4 gene expression in Th17 stimulated human skin; experiment: Th17 stimulated human skin explants, RT-qPCR of biomarkers; assay type: cell-based; conditions: calculated to Th17 stimulated control, three skin donors; for inhibition at 10 µM: Homo sapiens
From the text: (§1) Human skin biopsy tissue was stimulated to induce a Th17 immuno-phenotype using a method derived from Feghali-Bostwick et al. Induction of a Th17 phenotype in human skin—a mimic of dermal inflammatory diseases, Methods and Protocols, 2, 45 (2019). The pharmacodynamic assay described therein involves a similar paradigm to elicit a Th2 response and is used to evaluate the therapeutic potential of the active compounds (e.g., BETi1; and
(§2) Freshly excised healthy human skin tissue from abdominoplasties is defatted, cleaned and sectioned into 7 mm biopsies. The biopsies are placed in Transwell® inserts with the epidermis apical and exposed to air and the dermis submerged in media in the basal chamber. The biopsies are pre-treated overnight at 37° C., 5% CO2 with different compounds and controls added to the media in the basal chamber.
(§3) The next day, contents of the basal chamber is replaced with fresh media containing the test compound (listed below) and a stimulation cocktail for either Th2 inflammation (proprietary of service provider cocktail) or Th17 inflammation (mix of antibodies against CD3, CD28, IL-4, IFNγ and recombinant IL-1β, IL-6, IL-21, TGF-β). The biopsies are incubated at 37° C., 5% CO2 for a further 24 hrs.
(§4) A list of all the treatments is provided below: • 1. Untreated control (for both stimulations) • 2. Th2 stimulated control • 3. Th17 stimulated control • 4. Th2+BETia at 0.01, 0.04, 0.16, 0.63, 2.50, and 10 μM • 5. Th2+BETi1 at 0.01, 0.04, 0.16, 0.63, 2.50, and 10 μM • 6. Th2+Ruxolitinib at 0.01, 0.04, 0.16, 0.63, 2.50, and 10 μM • 7. Th2+betamethasone valerate 210 μM (equivalent to 0.01%) • 8. Th17+BETia at 10 μM • 9. Th17+BETi1 at 10 μM • 10. Th17+Ruxolitinib at 10 μM • 11. Th17+betamethasone valerate 210 μM (equivalent to 0.01%)
(§5) After harvesting, the biopsies are cut in half, and one half is homogenized and used for RNA extraction by standard methods and inflammatory pathways is assessed by RT-qPCR. The ability of BETi1 or BETia to inhibit the activity of up to six biomarkers per stimulation is reported as percent activity calculated to stimulated control and fold change in gene expression calculated to untreated control with respect to Th2 (IL4, IL13, IL31, CCL17, CCL26, CCL2) and Th17 (CXCL10, IL17α, IL22, IL36γ, CCL20, SerpinB4). Statistical analysis is performed on data sets from all 3 donors combined and compares the percent inhibition of each biomarker by each treatment calculated to its respective vehicle.
(§6) qPCR values were calculated using the relative quantification approach outlined by Livak, et al (2001) (Section 9, Reference 2). The Ct values (threshold cycle) defined as the fractional cycle number at which the amount of amplified target reaches a fixed threshold, were normalised to the Ct value of an internal biomarker or ‘housekeeping gene’ (GAPDH). The higher limit of detection was set at a Ct value of 40, and any target having not reached Ct by 40 cycles was set to this value. The delta Ct values (dt(Ct)) refers to the Ct of the gene of interest minus the Ct of the internal biomarker. The ddt(Ct) is the dt(Ct) value of the gene minus the average dt(Ct) value of the untreated samples. The ddt(Ct) is converted to power by the equation; =power(2,dt(Ct)). Fold change was calculated as ratio of the power of the gene of interest divided by the average power of the untreated samples. This normalizes the untreated samplers to a value of 1. For the comparison of multiple skin donors, the stimulated samples were normalized to 100% maximum activity (such to normalize variability between different skin donors). Percent activity was calculated as the percent increase or decrease in stimulation compared to the stimulated samples set at 100% maximum activity. Percent change was calculated as: Inhibition=(100−(avg % activity/stimulated)*100). Statistical analysis was performed using One-way ANOVA with Dunnett's Multiple Comparisons (non parametric). […]

[3] = tested on: IL4, IL13, IL31, CCL17, CCL26, CCL2 gene expression in Th2 stimulated human skin; experiment: Th2 stimulated human skin explants, RT-qPCR of biomarkers; assay type: cell-based; conditions: for inhibition at 0.01 µM / inhibition at 0.04 µM / inhibition at 0.16 µM / inhibition at 0.63 µM / inhibition at 2.5 µM / inhibition at 10 µM: Homo sapiens; for inhibition at 2.5 µM: 2.50 μM
From the text: as §1, §2, §3, §4, §5, §6

[4] = tested on: E-cadherin; experiment: RHE vitiligo model: E-cadherin secretion by ELISA; assay type: cell-based, human; conditions: Rux 1.5%, 48 h
Protocol: (§7) […] Three epidermis samples per condition are fixed in 4% formaldehyde solution and embedded in paraffin for further analysis (morphology analysis, melanin and melanocytes localisation/quantification). Three other epidermis samples per condition are put in a specific lysis buffer for total RNA extraction.
(§8) At the end of the treatments, culture media is collected (from 3 epidermis per condition), aliquoted and stored at −20° C. until use in ELISA assays. The quantity of MMP-9 secreted by the epidermis at the end of the treatments is analysed using the human MMP-9 Quantikine ELISA kit (Bio-Techne; DMP900). The secretion of E-cadherin in culture media is measured using to human E-cadherin Quantikine ELISA kit (Bio-Techne; DCADE0) dedicated for the measurement of natural human E-cadherin in culture supernates, serum, plasma, urine, and saliva.
(§9) The ELISAs are performed following the instructions of the supplier. The quantities of MMP-9 and E-cadherin are determined by comparisons with standard curves performed with recombinant human MMP-9 or E-cadherin provided in the kits.
(§10) Quantification of secretion of MMP-9 and E-cadherin by ELISA from collected culture medium was conducted in accordance with Method E. The results, shown in FIG. 5A and FIG. 5B are based on Tables 23 and 24 respectively and presented in percentage of release in comparison to the stimulated control. A statistical analysis (student t-test) was performed to compare the effects of the treatments with the formulations to the vehicle (with $: 0.05>p>0.01; $$: 0.01>p>0.001; and $$$: p<0.001). The same analysis was performed to compare the effects of the vehicle and of the unstimulated control to the stimulated control (with *: 0.05>p>0.01; **: 0.01>p>0.001; and ***: p<0.001). The analysis was performed from three replicates per condition (n=3). The mean of the three values and the standard deviation are presented on the histograms in FIG. 5A and FIG. 5B. As shown in Table 21 and FIG. 5A and consistent with the results of Part A, MMP-9 secretion was increased following the stimulation with the cytokines, which validates the assay.

[5] = tested on: MMP-9; experiment: RHE vitiligo model: MMP-9 secretion by ELISA; assay type: cell-based, human; conditions: Rux 1.5%, 48 h
Protocol: as §7, §8, §9, §10

[6] = 210 μM, calculated to Th2 stimulated control
[7] = calculated to Th2 stimulated control, read-out: % Inhibition CCL17
[8] = calculated to Th2 stimulated control, read-out: % Inhibition CCL26
[9] = calculated to Th2 stimulated control, read-out: % Inhibition IL31
[10] = calculated to Th2 stimulated control, read-out: % inhibition CCL2
[11] = calculated to Th2 stimulated control, read-out: % inhibition IL4
[12] = calculated to Th2 stimulated control, read-out: % inhibition IL13
[13] = TNF-α/IFN-γ stimulated RHE, replicates N1-N3
[14] = culture medium of RHE, TNF-α 12 ng/ml/IFN-γ 12 ng/ml
[15] = culture medium of RHE, TNF-α 12 ng/ml/IFN-γ 12 ng/ml, replicates N1-N3

## C[C@@H]1C[C@H]2[C@@H]3CCC4=CC(=O)C=C[C@]4(C)[C@@]3(F)[C@@H](O)C[C@]2(C)[C@@]1(O)C(=O)CO [Dex]
[1]; 1 mg/kg IA, Baseline
  Hot Plate Change in withdrawal latency (Avg.): 11.71 s
[1]; 1 mg/kg IA, Day 5
  Hot Plate Change in withdrawal latency (Avg.): 10.14 s
[1]; 1 mg/kg IA, Day 11
  Hot Plate Change in withdrawal latency (Avg.): 12.86 s
[1]; 1 mg/kg IP, Baseline
  Hot Plate Change in withdrawal latency (Avg.): 11.86 s
[1]; 1 mg/kg IP, Day 5
  Hot Plate Change in withdrawal latency (Avg.): 12.43 s
[1]; 1 mg/kg IP, Day 11
  Hot Plate Change in withdrawal latency (Avg.): 12.29 s

## CCCCC(=O)O[C@]1(C(=O)CO)[C@@H](C)C[C@H]2[C@@H]3CCC4=CC(=O)C=C[C@]4(C)[C@@]3(F)[C@@H](O)C[C@@]21C [Betamethasone, betamethasone valerate, reference compound]
[2]; 10 μM
  % inhibition CCL20: N/I (N/I indicates no inhibition.)
[2]; 210 μM
  % inhibition IL17α: 73.1%
  % inhibition IL36γ: 77.7%
[3]; 10 μM, calculated to Th2 stimulated control
  % Inhibition IL31: 87.4%
[3]; [6]
  % Inhibition CCL26: 64.4%
  % inhibition IL13: 97.8%

## N#CC[C@H](C1CCCC1)n1cc(-c2ncnc3[nH]ccc23)cn1 [Ruxolitinib, reference compound]
[2]; 10 μM, read-out: % inhibition CCL20
  inhibition at 10 µM: < 0%
[2]; 10 μM, read-out: % inhibition CXCL10
  inhibition at 10 µM: ~99%
[2]; 10 μM, read-out: % inhibition IL17α
  inhibition at 10 µM: 2.8%
[2]; 10 μM, read-out: % inhibition IL22
  inhibition at 10 µM: ~99%
[2]; 10 μM, read-out: % inhibition Serpinβ4
  inhibition at 10 µM: 92%
[3]; [7]
  inhibition at 0.01 µM: 23.2%
  inhibition at 0.04 µM: 47.7%
  inhibition at 0.63 µM: 34%
[3]; [8]
  inhibition at 0.01 µM: 14%
  inhibition at 0.04 µM: 35.3%
  inhibition at 0.63 µM: 88.3%
[3]; [9]
  inhibition at 0.01 µM: < 0%
  inhibition at 0.16 µM: 57.9%
  inhibition at 0.63 µM: 55.9%
  inhibition at 2.5 µM: < 0%
[3]; [10]
  inhibition at 0.01 µM: < 0%
  inhibition at 0.04 µM: < 0%
  inhibition at 0.16 µM: < 0%
  inhibition at 0.63 µM: < 0%
  inhibition at 2.5 µM: 33%
[3]; [11]
  inhibition at 0.01 µM: < 0%
  inhibition at 0.04 µM: 41.9%
  inhibition at 0.63 µM: 53.8%
  inhibition at 2.5 µM: 20.5%
[3]; [12]
  inhibition at 0.01 µM: 2.3%
  inhibition at 0.16 µM: 66.3%
  inhibition at 0.63 µM: 48.8%
  inhibition at 2.5 µM: 18.5%
[3]; 10 μM, calculated to Th2 stimulated control, read-out: % Inhibition CCL17
  inhibition at 10 µM: 89.9%
[3]; 10 μM, calculated to Th2 stimulated control, read-out: % Inhibition CCL26
  inhibition at 10 µM: 98.5%
[3]; 10 μM, calculated to Th2 stimulated control, read-out: % Inhibition IL31
  inhibition at 10 µM: 29.9%
[3]; 10 μM, calculated to Th2 stimulated control, read-out: % inhibition CCL2
  inhibition at 10 µM: ~57%
[3]; 10 μM, calculated to Th2 stimulated control, read-out: % inhibition IL4
  inhibition at 10 µM: 48.5%
[3]; 10 μM, calculated to Th2 stimulated control, read-out: % inhibition IL13
  inhibition at 10 µM: ~54%
[3]; Th2-mediated stimulation, 10 μM
  highest percent inhibition of CCL17 gene expression: ca. 90%

## N#CC[C@H](C1CCCC1)n1cc(-c2ncnc3[nH]ccc23)cn1 [Rux]
[4]; TNF-α/IFN-γ stimulated RHE
  E-Cad (% stimulated ctl) Mean: 160%
[4]; [13]
  E-Cad (% stimulated ctl): 77% and 247% and 155%
[4]; [14]
  Mean conc E-Cad: 3.7 ng/mL
[4]; [15]
  Conc E-Cad: 1.8 ng/mL and 5.7 ng/mL and 3.6 ng/mL
[5]; TNF-α/IFN-γ stimulated RHE
  MMP-9 (% stimulated ctl) Mean: 11%
[5]; [13]
  MMP-9 (% stimulated ctl): 2% and 28% and 4%
[5]; [14]
  Mean conc MMP-9: 2.0 ng/mL
[5]; [15]
  Conc MMP-9: 0.4 ng/mL and 4.9 ng/mL and 0.7 ng/mL

From patent US20250339409A1, “USES OF PAN BET INHIBITORS” (VYNE THERAPEUTICS INC., priority 2021, published 2025)
